Source: publication PMC5653977 (EMBO Molecular Medicine, 2017)

Columns and labels:
Erbb4 = target: T1, Erbb4 (Mus musculus, UniProt Q61527); assay: Western blot of phospho-Erbb4 in prefrontal cortex of spironolactone-treated mice; format: in vivo; conditions: Nrg1-tg mice, 50 mg/kg s.c. daily for 21 days, prefrontal cortex lysates
T1 construct: from tissue; host or cells: prefrontal cortex of Nrg1-tg and wt mice (C57Bl/6)
Method: (§1) For the generation of lysates, the isolated tissue was immediately placed into cooled (4°C) sucrose buffer (320 mM sucrose, 10 mM Tris–HCl, 1 mM NaHCO3, 1 mM MgCl2, supplemented with 10 mM NaF, 1 mM […], 1 mM ZnCl2, 4.5 mM Na4P20_7 as phosphatase inhibitors, and the complete protease inhibitor cocktail (Roche)), homogenized using an ultra‐turrax (IKA GmbH, Staufen, Germany), sonicated (3 pulses for 10 s), and denatured for 10 min at 70°C in LDS sample buffer.
(§2) Each blot was replicated two times.
Treatment was continued throughout the behavioral analysis period.

ERK = assay: Western blot of pERK in prefrontal cortex of spironolactone-treated mice; format: in vivo, mouse; conditions: Nrg1-tg and wt mice, 50 mg/kg s.c. daily for 21 days, prefrontal cortex lysates
Method: as §1, §2
(§3) Treatment was continued throughout the behavioral analysis period. To avoid injection‐induced stress prior to behavioral testing, mice were injected in the afternoon, after the entire cohort has completed the behavioral paradigm.

[1] = target: ERBB2-NTEV-tevS-GV + ERBB2-CTEV (Homo sapiens, UniProt P04626); assay: ERBB dimerization split TEV assay ERBB2/ERBB2; format: cell-based; conditions: 10 ng/ml EGFld
Chain of ERBB2-NTEV-tevS-GV + ERBB2-CTEV (P04626 23-1255): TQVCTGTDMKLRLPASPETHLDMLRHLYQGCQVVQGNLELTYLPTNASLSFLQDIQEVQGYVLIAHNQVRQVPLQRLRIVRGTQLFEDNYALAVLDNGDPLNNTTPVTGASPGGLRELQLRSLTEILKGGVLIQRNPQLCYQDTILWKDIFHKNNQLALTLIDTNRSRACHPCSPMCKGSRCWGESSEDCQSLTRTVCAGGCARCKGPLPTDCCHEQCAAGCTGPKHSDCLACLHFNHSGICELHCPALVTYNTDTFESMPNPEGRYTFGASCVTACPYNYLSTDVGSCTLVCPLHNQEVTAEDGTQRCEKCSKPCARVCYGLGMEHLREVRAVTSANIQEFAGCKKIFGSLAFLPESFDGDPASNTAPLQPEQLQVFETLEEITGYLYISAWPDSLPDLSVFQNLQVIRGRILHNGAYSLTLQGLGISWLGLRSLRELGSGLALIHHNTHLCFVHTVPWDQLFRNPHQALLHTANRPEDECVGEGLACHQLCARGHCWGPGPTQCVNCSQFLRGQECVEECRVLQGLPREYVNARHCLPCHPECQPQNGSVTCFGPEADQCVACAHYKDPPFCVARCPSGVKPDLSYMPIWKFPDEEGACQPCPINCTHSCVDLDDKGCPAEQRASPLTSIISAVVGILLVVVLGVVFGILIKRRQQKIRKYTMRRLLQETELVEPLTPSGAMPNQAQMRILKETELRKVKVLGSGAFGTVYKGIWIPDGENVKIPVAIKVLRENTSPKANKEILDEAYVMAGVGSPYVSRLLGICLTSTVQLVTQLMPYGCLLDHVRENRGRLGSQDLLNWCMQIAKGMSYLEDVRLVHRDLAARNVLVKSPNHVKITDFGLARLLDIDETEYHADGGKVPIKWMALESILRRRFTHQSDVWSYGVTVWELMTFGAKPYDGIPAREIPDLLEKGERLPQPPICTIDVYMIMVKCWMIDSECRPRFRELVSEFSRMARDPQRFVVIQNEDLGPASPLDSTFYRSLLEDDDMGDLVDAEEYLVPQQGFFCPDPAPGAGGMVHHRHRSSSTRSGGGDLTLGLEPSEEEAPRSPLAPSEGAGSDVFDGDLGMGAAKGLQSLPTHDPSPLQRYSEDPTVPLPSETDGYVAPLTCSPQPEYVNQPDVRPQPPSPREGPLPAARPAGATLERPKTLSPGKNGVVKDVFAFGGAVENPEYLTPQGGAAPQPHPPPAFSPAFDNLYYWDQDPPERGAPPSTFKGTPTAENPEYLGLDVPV
Chain of ERBB2-NTEV-tevS-GV + ERBB2-CTEV (P04626 23-1255): as above
Description: (§4) Gateway recombination cloning (Life Technologies) was applied for generating plasmids. Each ORF cloned was PCR‐amplified using the Pwo proofreading DNA polymerase (Roche) and BP‐recombined into the pDONR/Zeo plasmid (Life Technologies) to yield an entry vector, which was control‐digested using BsrGI to release the insert, and sequence‐verified. The following human ORFs were cloned using cDNA image clones ordered from Source BioScience: ERBB4 transcript variant JM‐a/CYT‐1 (Accession: BC112199), PIK3R1 (BC094795), GRB2 transcript variant 1 (BC000631), SHC1 transcript variant 2 (BC014158), STAT5A (BC027036), and SRC transcription variant 1 (BC051270). For EGFR, ERBB2, and ERBB3, entry vectors were obtained from the human CCSB kinase collection available from Addgene (Johannessen et al, 2010). Entry vectors were LR‐recombined into split TEV destination vectors [either pcDNA_attR1‐ORF‐attR2‐NTEV‐tevS‐GV‐2xHA_DEST or pTag4C_attR1‐ORF‐attR2‐CTEV‐2xHA_DEST, plasmids were described in detail before (Wehr et al, 2006)] to yield expression vectors, which were control‐digested using BsrGI. The plasmids for Nrg1 type I β1a and rat Nrg1 type III β1a have been described before (Wehr et al, 2006).

Nrg1-tg and wt mice = assay: Fear conditioning; format: in vivo, mouse; conditions: 50 mg/kg s.c. daily
Method: For behavioral testing, age‐matched male mice (8–16 weeks) on C57Bl/6 background that constitutively overexpress the 2xHA‐tagged Nrg1 type III β1a isoform (Nrg1‐tg) under the control of the mouse Thy1.2 promoter (Velanac et al, 2012) and their wild‐type (wt) littermates as controls were used. Animals were group‐housed in the same ventilated sound‐attenuated rooms under a 12‐h light/12‐h dark schedule (lights on at 8:00 am) at an ambient temperature of 21°C with food and water available ad libitum. One week prior to experiments, mice were separated into single cages and habituated to the experimental rooms. To minimize the influence of the circadian rhythm on drug actions, the treatment groups were analyzed at balanced time points during the light phase. […] All animal experiments were conducted in accordance with NIH principles of laboratory animal care and were approved by the Government of Lower Saxony, Germany, in accordance with the German Animal Protection Law.
as §3

[2] = set-up: method as in Juruena et al, 2009; conditions: ref Juruena et al, 2009; cited from earlier work
AKT = assay: Western blot of pAKT in prefrontal cortex of spironolactone-treated mice; format: in vivo, mouse; conditions: Nrg1-tg and wt mice, 50 mg/kg s.c. daily for 21 days, prefrontal cortex lysates
Method: as §1, §2, §3

[3] = tested on: pyramidal neurons of the prefrontal cortex; assay: Spontaneous inhibitory postsynaptic currents (sIPSCs) in acute prefrontal cortex slices; format: cell-based, mouse; conditions: 10 μM, bath application
Method: 300‐μm‐thick transverse slices comprising the medial prefrontal cortex (mPFC) area were prepared from 7‐ to 8‐week‐old C57Bl/6 mice as described previously (Teng et al, 2013; Agarwal et al, 2014). All recordings were performed in cortical layer V projection neurons. The bath solution consisted of oxygenated artificial cerebrospinal fluid (ACSF) containing NaCl 126 mM, KCl 3 mM, NaH2PO4 1.25 mM, MgSO4 1 mM, NaHCO3 26 mM, CaCl2 2 mM, glucose 10 mM, and the pH 7.2 adjusted with NaOH. Spontaneous GABAergic inhibitory postsynaptic currents (sIPSC) and evoked GABAergic inhibitory postsynaptic currents (eIPSC) were recorded at a holding potential of −70 mV in the presence of 6‐cyano‐7‐nitroquinoxaline‐2,3‐dione (CNQX, 10 μM) and DL‐2‐amino‐5‐phosphonovaleric acid (D‐APV, 50 μM). Glass pipettes were filled with the solution containing: KCl 140 mM, MgCl2 2 mM, CaCl2 1 mM, Na2GTP 0.5 mM, Na2ATP 4 mM, EGTA 10 mM, HEPES 10 mM. Patches with a series resistance of > 25 MΩ, a membrane resistance of < 0.8 GΩ, or leak currents of > 150 pA were excluded. Biphasic rectangular electric pulses (10 ms, 100–300 μA) were applied to layer I of the prelimbic area of mPFC through another glass pipette filled with ACSF. Synaptic currents were acquired at 20 kHz and filtered at 6 kHz, with a Digidata 1440 ADC‐converter coupled to a Multiclamp 700B amplifier (Molecular Devices, USA). Data acquisition was performed using pClamp10 software (Molecular Devices). MiniAnalysis 6.0.9 (Synaptosoft Inc., Decatur, USA) and pClamp10.1 were used for amplitude and frequency analysis of sIPSCs and eIPSCs, respectively. Paired Student's t‐test was used for statistical analysis.

[4] = target: ERBB2-NTEV-tevS-GV + ERBB3-CTEV (Homo sapiens, UniProt P04626+P21860); assay: ERBB dimerization split TEV assay ERBB2/ERBB3; format: cell-based; conditions: 10 ng/ml EGFld
Chain of ERBB2-NTEV-tevS-GV + ERBB3-CTEV (P04626 23-1255): as above
Chain of ERBB2-NTEV-tevS-GV + ERBB3-CTEV (P21860 20-1342): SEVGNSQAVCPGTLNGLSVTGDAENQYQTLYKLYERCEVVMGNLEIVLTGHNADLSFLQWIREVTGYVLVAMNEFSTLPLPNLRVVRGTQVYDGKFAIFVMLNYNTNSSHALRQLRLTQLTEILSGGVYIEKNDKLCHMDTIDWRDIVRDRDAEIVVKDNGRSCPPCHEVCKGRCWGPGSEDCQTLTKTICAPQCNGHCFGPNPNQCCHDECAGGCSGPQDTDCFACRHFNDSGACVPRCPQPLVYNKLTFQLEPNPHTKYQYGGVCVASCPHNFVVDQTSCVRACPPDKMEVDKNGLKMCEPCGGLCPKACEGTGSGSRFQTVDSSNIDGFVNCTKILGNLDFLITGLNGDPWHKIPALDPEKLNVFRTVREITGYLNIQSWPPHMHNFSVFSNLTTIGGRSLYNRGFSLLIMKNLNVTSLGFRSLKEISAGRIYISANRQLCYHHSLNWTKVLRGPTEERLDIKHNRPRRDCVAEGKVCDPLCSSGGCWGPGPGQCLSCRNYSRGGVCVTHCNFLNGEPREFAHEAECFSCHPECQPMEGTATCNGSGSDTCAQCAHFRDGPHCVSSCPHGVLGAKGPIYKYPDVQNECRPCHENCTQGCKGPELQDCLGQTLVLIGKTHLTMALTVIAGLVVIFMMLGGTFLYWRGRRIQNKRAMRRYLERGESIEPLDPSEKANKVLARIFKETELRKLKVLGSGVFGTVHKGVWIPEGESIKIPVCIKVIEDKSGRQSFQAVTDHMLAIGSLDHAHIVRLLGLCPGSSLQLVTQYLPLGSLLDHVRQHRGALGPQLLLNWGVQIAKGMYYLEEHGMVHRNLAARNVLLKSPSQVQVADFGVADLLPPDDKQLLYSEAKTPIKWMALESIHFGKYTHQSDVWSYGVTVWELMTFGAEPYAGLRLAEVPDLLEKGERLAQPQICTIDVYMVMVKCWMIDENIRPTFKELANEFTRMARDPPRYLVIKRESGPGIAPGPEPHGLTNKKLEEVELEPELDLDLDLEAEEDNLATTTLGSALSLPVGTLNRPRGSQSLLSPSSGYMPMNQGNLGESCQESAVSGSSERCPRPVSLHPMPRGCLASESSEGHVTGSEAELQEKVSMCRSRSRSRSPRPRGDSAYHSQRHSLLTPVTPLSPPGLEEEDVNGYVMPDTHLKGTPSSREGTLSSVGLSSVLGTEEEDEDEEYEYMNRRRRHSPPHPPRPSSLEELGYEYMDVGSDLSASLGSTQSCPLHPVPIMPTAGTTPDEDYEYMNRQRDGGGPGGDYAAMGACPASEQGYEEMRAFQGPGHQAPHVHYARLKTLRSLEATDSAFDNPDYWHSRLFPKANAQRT
Description: as §4

Limk1 = assay: Western blot of phospho-Limk1 in prefrontal cortex of spironolactone-treated mice; format: in vivo, mouse; conditions: Nrg1-tg mice, 50 mg/kg s.c. daily for 21 days, prefrontal cortex lysates
Method: as §1, §2, §3

SMILES: CC(=O)S[C@@H]1CC2=CC(=O)CC[C@]2(C)[C@H]2CC[C@@]3(C)[C@@H](CC[C@@]34CCC(=O)O4)[C@H]12 [Spironolactone]
- phospho-Erbb4 levels (p-ERBB4-Y1284 antibody) (Erbb4): robust reduction
- pERK (downstream signaling) (ERK): neither modulated by Nrg1 overexpression, nor by spironolactone treatment
- IC50 [1]: 13.1 µM
- cue memory (Nrg1-tg and wt mice): neither genotype nor treatment‐dependent alterations
- freezing in the contextual fear memory test (Nrg1-tg and wt mice; Nrg1-tg mice): non‐significant reduction in freezing
- anxiety in a small group of patients suffering from bipolar disorder [2]: partially improved
- pAKT (downstream signaling) (AKT): neither modulated by Nrg1 overexpression, nor by spironolactone treatment
- sIPSC amplitude [3]: increase
- sIPSC frequency [3]: increase
- IC50 [4]: 9.23 µM
- phospho-Limk1 levels (Limk1): markedly upregulated
